Assay results: ChEMBL document CHEMBL1201862, “PubChem BioAssay data set” (2004)
Several values for one entry are separate records, joined by “and”; a condition that tells them apart may be missing. Equal entries are not always repeated.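 Method: 48-hour compound exposure of cells in 96-well plates, five concentrations, linear interpolation of endpoints. GI50 is the concentration that inhibits growth by half.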 Activity calls are given as the source filed them. No stated cut-off is given here; in the data, active = GI50 up to about 1.1 µM and inactive = higher.

Key:
Test in all cases: NCI tumour cell line growth inhibition, 48 h
SN12C = system: SN12C
786-0 = system: 786-0
UO-31 = system: UO-31
IGROV-1 = system: IGROV-1
RPMI-8226 = system: RPMI-8226
UACC-62 = system: UACC-62
COLO 205 = system: COLO 205
SK-MEL-28 = system: SK-MEL-28
CAKI-1 = system: CAKI-1
HL-60 = system: HL-60
HOP-92 = system: HOP-92
A498 = system: A498
EKVX = system: EKVX
SNB-75 = system: SNB-75
K562 = system: K562
KM-20L2 = system: KM-20L2
M14 = system: M14

Measured: GI50

NC(=O)/C(=N\NC(=O)C[n+]1ccccc1)C1NC(=O)NC1=O (stereo not drawn)
inactive: SN12C > 100 µM | 786-0 > 100 µM | UO-31 > 100 µM | IGROV-1 > 100 µM | RPMI-8226 > 100 µM | UACC-62 > 100 µM | COLO 205 32.7 µM | SK-MEL-28 > 100 µM | CAKI-1 > 100 µM | HL-60 > 100 µM | HOP-92 > 100 µM | A498 > 100 µM | EKVX > 100 µM | SNB-75 > 100 µM | K562 > 100 µM | KM-20L2 > 100 µM | M14 > 100 µM

CNC(=O)CN(CC(N)=O)C(=O)NC
inactive: 786-0 > 100 µM | UO-31 > 100 µM | IGROV-1 > 100 µM | RPMI-8226 > 100 µM | UACC-62 > 100 µM | COLO 205 > 100 µM | SK-MEL-28 > 100 µM | CAKI-1 > 100 µM | HL-60 > 100 µM | HOP-92 > 100 µM | A498 > 100 µM | EKVX > 100 µM | SNB-75 > 100 µM | K562 > 100 µM | KM-20L2 > 100 µM | M14 > 100 µM

COc1ccc(-c2cc(-c3ccco3)c(C#N)c(=O)n2C2OC(OC(=O)c3ccccc3)C(OC(=O)c3ccccc3)C2OC(=O)c2ccccc2)cc1 (stereo not drawn)
inactive: SN12C > 100 µM | 786-0 > 100 µM | UO-31 46 µM | IGROV-1 > 100 µM | RPMI-8226 > 100 µM | UACC-62 > 10 µM | COLO 205 > 100 µM | SK-MEL-28 > 100 µM | CAKI-1 > 100 µM | HOP-92 23.9 µM | A498 > 100 µM | EKVX > 100 µM | SNB-75 72.1 µM | K562 > 100 µM | KM-20L2 > 100 µM | M14 > 100 µM

C=CC1(C(=O)O)CCC(C(C)(C)C)CC1 (stereo not drawn)
inactive: SN12C > 100 µM | 786-0 > 100 µM | UO-31 > 100 µM | IGROV-1 > 100 µM | RPMI-8226 > 100 µM | UACC-62 > 100 µM | COLO 205 > 100 µM | CAKI-1 > 100 µM | HL-60 > 100 µM | HOP-92 > 100 µM | A498 > 100 µM | EKVX > 100 µM | SNB-75 > 100 µM | K562 > 100 µM | KM-20L2 > 100 µM | M14 > 100 µM

COc1cc2c(cc1OC)[C@H]1C(COC(=O)c3ccccc3)CS/C(=N/c3ccccc3)N1CC2 (stereo partly drawn)
inactive: SN12C > 100 µM | 786-0 > 100 µM | UO-31 24.5 µM | IGROV-1 > 100 µM | RPMI-8226 4.33 µM | UACC-62 > 100 µM | COLO 205 > 100 µM | SK-MEL-28 > 100 µM | CAKI-1 > 100 µM | HL-60 5.31 µM | HOP-92 8.17 µM | A498 48.9 µM | EKVX > 100 µM | SNB-75 27.7 µM | KM-20L2 76 µM | M14 > 100 µM

COC(=O)C(CCCCCCCC(C(=O)OC)C1=Nc2nnc(N)n2C1=O)C1=Nc2nnc(N)n2C1=O (stereo not drawn)
inactive: SN12C > 100 µM | 786-0 > 100 µM | UO-31 > 100 µM | IGROV-1 > 100 µM | RPMI-8226 4.07 µM | UACC-62 > 100 µM | COLO 205 > 100 µM | SK-MEL-28 > 100 µM | CAKI-1 11.2 µM | HL-60 > 100 µM | HOP-92 65.8 µM | A498 > 100 µM | EKVX > 100 µM | SNB-75 48.3 µM | KM-20L2 > 100 µM | M14 > 100 µM

C[C@@H]1C[C@@H]2C(=O)N(c3ccccc3)C(=O)[C@@H]2c2[nH]c3ccc(Br)cc3c21
inactive: SN12C 41 µM | 786-0 39.2 µM | UO-31 45.9 µM | IGROV-1 87.1 µM | UACC-62 84.7 µM | COLO 205 > 100 µM | SK-MEL-28 > 100 µM | CAKI-1 27.4 µM | HL-60 26.8 µM | HOP-92 27.6 µM | A498 68.4 µM | EKVX 36.9 µM | SNB-75 20.2 µM | K562 49.1 µM | KM-20L2 > 100 µM | M14 75.2 µM

COc1ccccc1/C=N/C12CC3CC(CC(C3)C1)C2
inactive: SN12C > 100 µM | 786-0 > 100 µM | UO-31 > 100 µM | RPMI-8226 > 100 µM | UACC-62 > 100 µM | COLO 205 > 100 µM | SK-MEL-28 > 100 µM | CAKI-1 > 100 µM | HL-60 73.6 µM | HOP-92 > 100 µM | A498 > 100 µM | EKVX > 100 µM | SNB-75 86.9 µM | K562 32.4 µM | KM-20L2 > 100 µM | M14 > 100 µM

O=c1ncccn1[C@@H]1O[C@H](CO)[C@@H](O)[C@@H]1F
inactive: SN12C > 100 µM | 786-0 > 100 µM | IGROV-1 > 100 µM | RPMI-8226 > 100 µM | COLO 205 > 100 µM | SK-MEL-28 > 64 µM | CAKI-1 > 100 µM | HL-60 > 100 µM | HOP-92 > 100 µM | A498 > 100 µM | EKVX > 100 µM | SNB-75 > 100 µM and > 50.9 µM | KM-20L2 > 100 µM | M14 > 100 µM
